Results on 34 compounds are retold here after patent US8324405B2, “Chromene derivatives and use thereof as HIF hydroxylase activity inhibitors” (FibroGen, Inc., priority 2008, dated 2012).

The target of the assay is T1, HIF-PH2 (Homo sapiens, UniProt Q9GZT9).
T1 construct: made in house; host or cells: insect Hi5 cells
As to the kind of experiment: HIF-PH assay (14CO2 capture, peptide-dependent turnover). Format: biochemical. The note with it: for inhibition at 7.41 µM: Concentration 7.41 μM; for inhibition at 200 µM: Concentration 200.00 μM; for inhibition at 12.5 µM: Concentration 12.50 μM; for inhibition at 50 µM: Concentration 50.00 μM. The source says:
Ketoglutaric acid α-[1-^14C]-sodium salt, alpha-ketoglutaric acid sodium salt, and HPLC purified peptide may be obtained from commercial sources, e.g., Perkin-Elmer (Wellesley Mass.), Sigma-Aldrich, and SynPep Corp. (Dublin Calif.), respectively. Peptides for use in the assay may be fragments of HIFα as described above or as disclosed in International Publication WO 2005/118836, incorporated by reference herein. For example, a HIF peptide for use in the HIF-PH assay is [methoxycoumarin]-DLDLEALAPYIPADDDFQL-amide. HIF-PH, e.g., HIF-PH2 (EGLN1), can be expressed in, e.g., insect Hi5 cells, and partially purified, e.g., through a SP ion exchange chromatography column. Enzyme activity is determined by capturing ^14CO2 using an assay described by Kivirikko and Myllyla (1982, Methods Enzymol. 82:245-304). Assay reactions contain 50 mM HEPES (pH 7.4), 100 μM α-ketoglutaric acid sodium salt, 0.30 μCi/mL ketoglutaric acid α-[1-^14C]-sodium salt, 40 μM FeSO4, 1 mM ascorbate, 1541.8 units/mL Catalase, with or without 50 μM peptide substrate and various concentrations of compound of the invention. Reactions are initiated by addition of HIF-PH enzyme.
The peptide-dependent percent turnover is calculated by subtracting percent turnover in the absence of peptide from percent turnover in the presence of substrate peptide. Percent inhibition and IC50 are calculated using peptide-dependent percent turnover at given inhibitor concentrations. Calculation of IC50 values for each inhibitor is conducted using GraFit software (Erithacus Software Ltd., Surrey UK).
Representative compounds of the invention were analyzed using the HIF-PH assay described above. Table I presents enzyme inhibition data for exemplary compounds against HIF-PH2, a representative HIF prolyl hydroxylase. By inhibiting HIF prolyl hydroxylase, compounds of the invention stabilize HIFα, which then combines with HIFβ to form an active transcription factor that increases expression of various genes involved in numerous beneficial cellular processes.

T1 sequence (Q9GZT9 whole entry, species assumed): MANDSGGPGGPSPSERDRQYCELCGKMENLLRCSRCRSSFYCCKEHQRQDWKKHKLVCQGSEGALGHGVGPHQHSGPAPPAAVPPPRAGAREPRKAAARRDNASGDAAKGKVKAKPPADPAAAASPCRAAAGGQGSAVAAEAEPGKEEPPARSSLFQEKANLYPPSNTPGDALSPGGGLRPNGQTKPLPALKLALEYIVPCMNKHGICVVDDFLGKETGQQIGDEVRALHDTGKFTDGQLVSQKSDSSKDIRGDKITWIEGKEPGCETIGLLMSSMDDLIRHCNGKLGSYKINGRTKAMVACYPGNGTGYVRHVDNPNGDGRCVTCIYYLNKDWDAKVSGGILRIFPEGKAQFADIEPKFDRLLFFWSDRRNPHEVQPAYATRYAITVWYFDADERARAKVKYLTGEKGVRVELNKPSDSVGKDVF

Where the note is “Concentration 22.22 μM”, `O=C(O)CNC(=O)c1c(O)c2ccccc2oc1=O` [Example 1, [(4-Hydroxy-2-oxo-2H-chromene-3-carbonyl)-amino]-acetic acid] returned an inhibition at 22.22 µM of 96%.
Compound `O=C(O)CNC(=O)c1c(O)c2cc(Br)ccc2oc1=O` [Example 2, [(6-Bromo-4-hydroxy-2-oxo-2H-chromene-3-carbonyl)-amino]-acetic acid] registered an inhibition at 22.22 µM (Concentration 22.22 μM) of 97%.
In turn, `COc1ccc(-c2ccc3oc(=O)c(C(=O)NCC(=O)O)c(O)c3c2)cc1` [Example 3, {[4-Hydroxy-6-(4-methoxy-phenyl)-2-oxo-2H-chromene-3-carbonyl]-amino}-acetic acid] yielded an inhibition at 7.41 µM of 94%.
Still for that read-out and setting: the figure for `O=C(O)CNC(=O)c1c(O)c2cc(-c3ccc(Oc4ccccc4)cc3)ccc2oc1=O` [Example 4, {[4-Hydroxy-2-oxo-6-(4-phenoxy-phenyl)-2H-chromene-3-carbonyl]-amino}-acetic acid] is 100%; for `O=C(O)CNC(=O)c1c(O)c2cc(-c3ccc(C(F)(F)F)cc3)ccc2oc1=O` [Example 5, {[4-Hydroxy-2-oxo-6-(4-trifluoromethyl-phenyl)-2H-chromene-3-carbonyl]-amino}-acetic acid] it is 96%.
Turning to `Cc1ccc2oc(=O)c(C(=O)NCC(=O)O)c(O)c2c1` [Example 6, [(4-Hydroxy-6-methyl-2-oxo-2H-chromene-3-carbonyl)-amino]-acetic acid], the inhibition at 200 µM came to 100%.
Still for that read-out and setting: the figure for `O=C(O)CNC(=O)c1c(O)c2cccc(Cl)c2oc1=O` [Example 7, [(8-Chloro-4-hydroxy-2-oxo-2H-chromene-3-carbonyl)-amino]-acetic acid] is 100%.
As to `O=C(O)CNC(=O)c1c(O)c2cc(-c3ccc(OCc4ccccc4)cc3)ccc2oc1=O` [Example 8, {[6-(4-Benzyloxy-phenyl)-4-hydroxy-2-oxo-2H-chromene-3-carbonyl]-amino}-acetic acid], the inhibition at 22.22 µM (Concentration 22.22 μM) is 100%.
`O=C(O)CNC(=O)c1c(O)c2ccc(Oc3ccccc3)cc2oc1=O` [Example 9, [(4-Hydroxy-2-oxo-7-phenoxy-2H-chromene-3-carbonyl)-amino]-acetic acid] gave an inhibition at 22.22 µM (Concentration 22.22 μM) of 100%.
With `Cc1ccc2c(O)c(C(=O)NCC(=O)O)c(=O)oc2c1C` [Example 10, [(4-Hydroxy-7,8-dimethyl-2-oxo-2H-chromene-3-carbonyl)-amino]-acetic acid], under “Concentration 22.22 μM”, at 22.22 µM the inhibition was 100%.
Same read-out and setting: the figure for `O=C(O)CNC(=O)c1c(O)c2ccc(-c3ccc(Oc4ccccc4)cc3)cc2oc1=O` [Example 11, {[4-Hydroxy-2-oxo-7-(4-phenoxy-phenyl)-2H-chromene-3-carbonyl]-amino}-acetic acid] is 100%.
Regarding `C[C@H](NC(=O)c1c(O)c2ccc(-c3ccc(Oc4ccccc4)cc3)cc2oc1=O)C(=O)O` [Example 12, 2-S-{[4-Hydroxy-2-oxo-7-(4-phenoxy-phenyl)-2H-chromene-3-carbonyl]-amino}-propionic acid], where the note is “Concentration 22.22 μM”, the “% Inhibition HIF-PH2” value is recorded as 100%.
For the setting “Concentration 22.22 μM”, `O=C(O)CNC(=O)c1c(O)c2cc(Cl)cc(Cl)c2oc1=O` [Example 13, [(6,8-Dichloro-4-hydroxy-2-oxo-2H-chromene-3-carbonyl)-amino]-acetic acid] had an inhibition at 22.22 µM of 96%.
`CCOC(=O)CNC(=O)c1c(O)c2cc(Cl)cc(Cl)c2oc1=O` [Example 14, [(6,8-Dichloro-4-hydroxy-2-oxo-2H-chromene-3-carbonyl)-amino]-acetic acid ethyl ester] came in with an inhibition at 200 µM of 43%.
`Cc1cc2oc(=O)c(C(=O)NCC(=O)O)c(O)c2cc1C` [Example 15, [(4-Hydroxy-6,7-dimethyl-2-oxo-2H-chromene-3-carbonyl)-amino]-acetic acid]: the inhibition at 12.5 µM was 98%.
For the compound `O=C(O)CNC(=O)c1c(O)c2cc(F)ccc2oc1=O` [Example 16, [(6-Fluoro-4-hydroxy-2-oxo-2H-chromene-3-carbonyl)-amino]-acetic acid], the inhibition at 12.5 µM came to 96%.
On the same count and under the same terms, then `O=C(O)CNC(=O)c1c(O)c2ccc(F)cc2oc1=O` [Example 17, [(7-Fluoro-4-hydroxy-2-oxo-2H-chromene-3-carbonyl)-amino]-acetic acid], with 98%; and `O=C(O)CNC(=O)c1c(O)c2cc(F)cc(F)c2oc1=O` [Example 18, [(6,8-Difluoro-4-hydroxy-2-oxo-2H-chromene-3-carbonyl)-amino]-acetic acid], with 95%.
In turn, `Cc1cc(Cl)cc2c(O)c(C(=O)NCC(=O)O)c(=O)oc12` [Example 19, [(6-Chloro-4-hydroxy-8-methyl-2-oxo-2H-chromene-3-carbonyl)-amino]-acetic acid] showed an inhibition at 50 µM of 99%.
The same measure, in the same setting: then `Cc1cccc2c(O)c(C(=O)NCC(=O)O)c(=O)oc12` [Example 20, [(4-Hydroxy-8-methyl-2-oxo-2H-chromene-3-carbonyl)-amino]-acetic acid], with 99%; and `Cn1nc(C(F)(F)F)cc1-c1cc(Cl)cc2c(O)c(C(=O)NCC(=O)O)c(=O)oc12` [Example 21, {[6-Chloro-4-hydroxy-8-(2-methyl-5-trifluoromethyl-2H-pyrazol-3-yl)-2-oxo-2H-chromene-3-carbonyl]-amino}-acetic acid], with 99%; and `O=C(O)CNC(=O)c1c(O)c2cc(Cl)cc(-c3cccnc3)c2oc1=O` [Example 23, [(6-Chloro-4-hydroxy-2-oxo-8-pyridin-3-yl-2H-chromene-3-carbonyl)-amino]-acetic acid], with 99%.
Compound `O=C(O)CNC(=O)c1c(O)c2cc(-c3cccs3)ccc2oc1=O` [Example 27, [(4-Hydroxy-2-oxo-6-thiophen-2-yl-2H-chromene-3-carbonyl)-amino]-acetic acid] had an inhibition at 12.5 µM of 99%.
Same read-out and setting: the figure for `O=C(O)CNC(=O)c1c(O)c2cc(-c3ccco3)ccc2oc1=O` [Example 28, [(6-Furan-2-yl-4-hydroxy-2-oxo-2H-chromene-3-carbonyl)-amino]-acetic acid] is 100%.
Compound `O=C(O)CNC(=O)c1c(O)c2cc(-c3cccnc3)ccc2oc1=O` [Example 29, [(4-Hydroxy-2-oxo-6-pyridin-3-yl-2H-chromene-3-carbonyl)-amino]-acetic acid] returned an inhibition at 50 µM of 97%.
Compound `O=C(O)CNC(=O)c1c(O)c2cc(-c3ccccn3)ccc2oc1=O` [Example 30, [(4-Hydroxy-2-oxo-6-pyridin-2-yl-2H-chromene-3-carbonyl)-amino]-acetic acid] gave an inhibition at 50 µM of 99%.
For the compound `O=C(O)CNC(=O)c1c(O)c2ccc3ccccc3c2oc1=O` [Example 31, [(4-Hydroxy-2-oxo-2H-benzo[h]chromene-3-carbonyl)-amino]-acetic acid], the inhibition at 12.5 µM turned out to be 100%.
Regarding `O=C(O)CNC(=O)c1c(O)c2cc3ccccc3cc2oc1=O` [Example 32, [(4-Hydroxy-2-oxo-2H-benzo[g]chromene-3-carbonyl)-amino]-acetic acid], 12.5 µM produced 98% inhibition.
`O=C(O)CNC(=O)c1c(O)c2c(ccc3ccccc32)oc1=O` [Example 33, [(1-Hydroxy-3-oxo-3H-benzo[f]chromene-2-carbonyl)-amino]-acetic acid] registered an inhibition at 200 µM of 100%.
Turning to `O=C(O)CNC(=O)c1c(O)c2cc3cc(Br)ccc3c(Br)c2oc1=O` [Example 34, [(7,10-Dibromo-4-hydroxy-2-oxo-2H-benzo[g]chromene-3-carbonyl)-amino]-acetic acid], the inhibition at 12.5 µM stood at 100%.
`Cc1ccc2c(O)c(C(=O)NCC(=O)O)c(=O)oc2c1` [Example 35, [(4-Hydroxy-7-methyl-2-oxo-2H-chromene-3-carbonyl)-amino]-acetic acid] showed an inhibition at 12.5 µM of 97%.
As to `O=C(O)CNC(=O)c1c(O)c2c(OCc3ccccc3)cccc2oc1=O` [Example 46, [(5-Benzyloxy-4-hydroxy-2-oxo-2H-chromene-3-carbonyl)-amino]-acetic acid], the inhibition at 50 µM is 99%.
`O=C(O)CNC(=O)c1c(O)c2c(OCc3ccc(F)cc3)cccc2oc1=O` [Example 47, {[5-(4-Fluoro-benzyloxy)-4-hydroxy-2-oxo-2H-chromene-3-carbonyl]-amino}-acetic acid]: 50 µM produced 99% inhibition.
The compound `Cc1ccc(COc2cccc3oc(=O)c(C(=O)NCC(=O)O)c(O)c23)cc1` [Example 48, {[4-Hydroxy-5-(4-methyl-benzyloxy)-2-oxo-2H-chromene-3-carbonyl]-amino}-acetic acid] displayed an inhibition at 50 µM of 99%.
